Laboratory results from patent US12635683B2, “Preservation of natural and bioengineered tissues and methods of storing and transport” (LifeNet Health, priority 2021, dated 2026).

System: Epiderm construct
Assay: Construct viability after vitrification and rewarming (metabolic activity)
Assay type: cell-based, human
Settings: αT and QVD added together to culture medium before and after vitrification
Procedure: Tissue Culture: Human epidermal models were obtained from commercial sources and maintained according to their specifications. All constructs were incubated in appropriate media for 24 hours under physiological tissue culture conditions before initiating experiments. Fresh controls were used in each experiment and experimental treatment groups were assessed over 4-5 days post-rewarming.
Vitrification Methods: The constructs were gradually infiltrated with precooled vitrification formulations at 4° C. in six steps with 0%, 12.5%, 25%, 50%, 75% and 100% of each formulation to achieve a final cryoprotectant concentration. After rewarming, the vitrification solution was removed in seven sequential steps at 4° C. into culture medium as previously described (see Song et al., Vitreous cryopreservation maintains the function of vascular grafts, Nature Biotechnology, 8(3):296-9, Epub 2000/03/04, doi:10.1038/73737, PubMed PMID: 10700144 (2000); and Song et al., Vitreous Preservation of Rabbit Articular Cartilage, Cell Preservation Technology, 2 (1); 67-74 (2004)).
Once loaded with vitrification solution the construct can be cooled to storage temperature and rewarmed using several methods. (1) The constructs were placed in glass scintillation vials (Diam.×H, 25 mm×60 mm) containing 1.5 mL of pre-cooled vitrification solution with 0.3 mL solution inside the well insert. Then 1 mL of 2-methylbutane (isopentane, freezing point: −160° C., density: 0.62) was placed on top of the vitrification solution in the vial and 0.2 mL inside the well insert at 4° C. to prevent direct air contact. Samples were cooled rapidly (approximately 45° C./minute) to −100° C. by placing the samples in a pre-cooled bath containing isopentane in a −135° C. mechanical storage freezer. Upon achieving −100° C. the specimens were removed from the bath and stored at −135° C. in the mechanical storage freezer, which results in slow cooling (3° C./minute) to −135° C. The samples were held at −135° C. for a minimum of 24 hours. The constructs were rewarmed in two stages, first, slow warming to −100° C. (approximately 30° C./minute) at the top of the mechanical storage freezer and then rapidly warmed to either 0° C. or ±−10° C. approximately 225° C./min) in a 30% ME2SO bath at room temperature. (2) The constructs in inserts are placed within the well of a deep well plate. There is 0.6 mL vitrification solution in the well and 0.2 mL solution in the insert. […]
Resazurin Assay: Was used to measure the metabolic activity and has the advantage of being non-toxic so constructs can be assessed before and several times after treatment. […]

Row | SMILES | Effect of additive in culture medium on construct viability | Effect of additive in culture medium on construct viability (listed as QVD) | Effect of additive in culture medium on construct viability (listed as αT)
1 | CC(C)[C@H](NC(=O)c1ccc2ccccc2n1)C(=O)N[C@@H](CC(=O)O)C(=O)COc1c(F)cccc1F [Q-VD-OPH, quinoline-Val-Asp-difluorophenoxymethyl ketone] | improved viability | significant improvement | 
2 | Cc1c(C)c2c(c(C)c1O)CC[C@@](C)(CCC[C@H](C)CCC[C@H](C)CCCC(C)C)O2 [α-tocopherol] | improved viability |  | significant improvement
